Assay: FAC binding constant
Conditions: at 25° C.
Procedure: Details of the FAC method are described in Patent Document 2 filed by some of the present applicants, for example.
Binding constants (at 25° C.) of PhoSL, SRL, NSL and LSL belonging to the fucose α1→6 specific lectin for various sugar chains are shown in Tables 2 to 5.

[1] = sugar chain having fucose other than α1→6 fucose

SRL: fucose α1→6 specific lectin that can be extracted from Stropharia rugosoannulata, SEQ ID No. 2
<1000 M⁻¹: Binding constant for sugar chain No. 728 (Table 3: sugar chain having fucose other than α1→6 fucose) | Binding constant for sugar chain No. 419 [1] | Binding constant for sugar chain No. 420 [1] | Binding constant for sugar chain No. 718 [1] | Binding constant for sugar chain No. 719 [1] | Binding constant for sugar chain No. 720 [1] | Binding constant for sugar chain No. 721 [1] | Binding constant for sugar chain No. 722 [1] | Binding constant for sugar chain No. 723 [1] | Binding constant for sugar chain No. 726 [1] | Binding constant for sugar chain No. 727 [1] | Binding constant for sugar chain No. 729 [1] | Binding constant for sugar chain No. 730 [1] | Binding constant for sugar chain No. 731 [1] | Binding constant for sugar chain No. 739 [1] | Binding constant for sugar chain No. 909 [1] | Binding constant for sugar chain No. 910 [1] | Binding constant for sugar chain No. 931 [1] | Binding constant for sugar chain No. 932 [1] | Binding constant for sugar chain No. 933 [1] | Binding constant for sugar chain No. 001 (sugar chain having no fucose) | Binding constant for sugar chain No. 002 (sugar chain having no fucose) | Binding constant for sugar chain No. 003 (sugar chain having no fucose) | Binding constant for sugar chain No. 004 (sugar chain having no fucose) | Binding constant for sugar chain No. 005 (sugar chain having no fucose) | Binding constant for sugar chain No. 006 (sugar chain having no fucose) | Binding constant for sugar chain No. 007 (sugar chain having no fucose) | Binding constant for sugar chain No. 008 (sugar chain having no fucose) | Binding constant for sugar chain No. 009 (sugar chain having no fucose) | Binding constant for sugar chain No. 010 (sugar chain having no fucose) | Binding constant for sugar chain No. 011 (sugar chain having no fucose) | Binding constant for sugar chain No. 012 (sugar chain having no fucose) | Binding constant for sugar chain No. 013 (sugar chain having no fucose) | Binding constant for sugar chain No. 014 (sugar chain having no fucose) | Binding constant for sugar chain No. 101 (sugar chain having no fucose) | Binding constant for sugar chain No. 103 (sugar chain having no fucose) | Binding constant for sugar chain No. 104 (sugar chain having no fucose) | Binding constant for sugar chain No. 105 (sugar chain having no fucose) | Binding constant for sugar chain No. 107 (sugar chain having no fucose) | Binding constant for sugar chain No. 108 (sugar chain having no fucose) | Binding constant for sugar chain No. 301 (sugar chain having no fucose) | Binding constant for sugar chain No. 304 (sugar chain having no fucose) | Binding constant for sugar chain No. 305 (sugar chain having no fucose) | Binding constant for sugar chain No. 307 (sugar chain having no fucose) | Binding constant for sugar chain No. 308 (sugar chain having no fucose) | Binding constant for sugar chain No. 313 (sugar chain having no fucose) | Binding constant for sugar chain No. 314 (sugar chain having no fucose) | Binding constant for sugar chain No. 323 (sugar chain having no fucose) | Binding constant for sugar chain No. 501 (sugar chain having no fucose) | Binding constant for sugar chain No. 502 (sugar chain having no fucose) | Binding constant for sugar chain No. 503 (sugar chain having no fucose) | Binding constant for sugar chain No. 504 (sugar chain having no fucose)

— patent US20200264182A1, “METHOD FOR DETECTING PROSTATE CANCER” (J-OIL MILLS, INC., priority 2017, published 2020)
